The values below come from patent US20240226342A1, “REACTIVE OXYGEN SPECIES IMAGING AGENTS” (Washington University, priority 2022, published 2024).

Series [1] is described as follows: Metabolite analysis after incubation in human serum or plasma (QC radio-HPLC). In kind it is in vitro ADME. As to conditions: 37° C., upto 1 h. An excerpt: Oxidative imbalance and functional impairment of mitochondria may mediate pathogenesis of neurodegenerative diseases and mitochondria are among the prominent intracellular site for ROS generation. Thus, a 2nd generation redox-sensitive neuroROS tracer was designed (also identified as either as SLN 128 or 12 (noncarrier added) or ^18F-13 (PET tracer); see e.g., FIG. 2) for the detection of total ROS within cells undergoing pro-oxidative stage. While the unlabeled/noncarrier counterpart of the probe 12 was synthesized and characterized through standard analytical methods (Proton NMR, proton-decoupled 13C-NMR, HRMS, Elemental analysis), the carrier added ^18F-13 (Lab ID:18F-SLN128) was synthesized through a reaction between the tosylated precursor 11 and KF{18F}-/Kryptofix 222 and followed by deprotection of methoxymethyl ether 11 in situ with TFA as shown (see e.g., FIG. 2), purified on semipreparatory C-18 column, the desired fraction with a Rt=12 min was collected, concentrated, reconstituted in 5% ethanol/95%sterile saline and analyzed for purity on QC radio-HPLC (radiochemical yield: 15-20%; radiochemical purity >99%; specific activity:1400-1700 Ci/mmole) and identified by spiking with the noncarrier added/unlabeled counterpart. […] For analysis of metabolites, ^18F-SLN-128 was incubated with either human serum or plasma at 37° C. as a function of time and analyzed on QC Radio-HPLC.

A short description of series [2]: Quantitative biodistribution in normal mice. In kind it is in vivo. How it is done:
FIG. 8 is a line graph showing biodistribution of 18F-SLN128 in normal BI6 mice in accordance with the present disclosure. Shown is uptake (5 min, 60 min, 2 h) in brain and other critical organs quantified in terms of percent injected dose per gram of the tissue (% ID/g).
Lipopolysaccharide (LPS), is an endotoxin, released from Gram-negative bacteria. Next, the ability of SLN128 to detect either LPS or 3-Nitropropionic acid (3-NP) induced ROS in human cells was evaluated through live-cell fluorescence imaging. LPS is detected by toll-like receptor 4 (TLR4), a broadly expressed pattern recognition receptor found both on different cell types, including glial cells, and neurons. TLR4 engagement triggers the generation of mitochondrial superoxide from electron transport complex I, which in turn promotes bacterial killing. LPS treatment also triggers increased cytokine and chemokine expression in brain thus driving inflammation. Furthermore, 3-NP is an irreversible inhibitor of mitochondrial succinate dehydrogenase (SDH), which has been used to explore the molecular mechanisms of cell death associated with mitochondrial dysfunction and neurodegeneration. […] To this end, intracellular localization of SLN-128 in either the presence or absence of mitotracker deep red (control) was simulataneously assessed in either the LPS or 3-NP stimulated human glioblastoma U87 cells (see e.g., FIG. 4). […] Further, uptake of SLN 128 in U87 cells was compared under identical conditions with mitoSOX, a probe extensively used for assessing mROS. […] To test, whether SLN128 has ability to monitor therapeutic effects in U87 cells under identical conditions, SLN128 was incubated in either presence or absence of resveratrol (commonly used for mitigating mitochondrial ROS production) under 3 different conditions. The probe uptake was quantified as corrected total cell fluorescence (CTCF) using image J as described earlier. […] (see e.g., FIG. 6). […] Uptake in brain and other critical organs was analyzed in terms of percent injected dose per gram of the tissue (% ID/g).
For comparison, brain uptake ratios of [^18F]-AVID-45 ([^18F]-Florbetapir)(2 min/2 h) and [^18F]-Florbetaben (2 min/4 h) in normal mice are 4.07 (% ID/g (brain): 2 min: 7.33±1.54; 2 h: 1.80±0.07; 7.33/1.80; 4.07) 57 and 5.0 (% ID/g (brain): 2 min: 4.77; 4 h: 0.95; 4.77/0.95; 5.02) 58, respectively.

The test system of series [3] is 3NP-induced ROS-mediated neurodegeneration in mice. The experiment in a line: PET/CT imaging after stereotaxic injection of 3-NP into striatum. In kind it is in vivo. How it is done: FIG. 10A-FIG. 10D is an exemplary embodiment showing preclinical PET/CT imaging in accordance with the present disclosure. C57BI6 mice (n=4) were injected with either 3-Nitropropionic acid (3-NP) or saline into striatum. 72 h following treatments, 18F-SLN-128 was injected via tail-vein into mice. FIG. 10A includes PET/CT images shown as a summation frames from 45-60 min. Dynamic PET images acquired from 0 min to 60 min post tail-vein injection. Left: Control; Right: 3-NP treated (1 mg/kg, 72 h post treatment). FIG. 10B is a bar graph showing uantified uptake (% ID/cm^3) from PET imaging. FIG. 10C includes images of brains extracted from mice, fixed in PFA/sucrose; sectioned (40 μm); stained with Cresyl violet; Arrow indicates injection site. […]
Systemic administration of LPS induces oxidative stress and resulting a release of inflammatory cytokines, sustained microglial activation, and neuronal cell loss in brain areas, such as the hippocampus, cerebral cortex, substantia nigra, ventral tegmental area, and thalamus, alters the levels of neurotransmitters in adult animals, and cerebellum. […] Finally, the brain uptake (see e.g., FIG. 9C) derived from PET imaging also correlated with 60 min post imaging quantified uptake (see e.g., FIG. 9D) indicating potential of the radiotracer for imaging endotoxin mediated brain inflammation in vivo. […]

The structures appear in SMILES notation. Values joined by “and” are separate entries in the source; they are usually repeats but may differ in a detail not shown here. Equal values may be shown once.

As for `COc1ccc2c(c1)N(C)C(c1ccc(O)c(OCC[18F])c1)c1cccn1-2` (centres unmarked) [18F-SLN-128], in series [1], the “metabolic stability in human serum” value was “remains non-metabolized”. Further, in series [2] (healthy mice), the “brain uptake clearance ratio relative to [18F]-AV-45” value is recorded as 2.9 fold and the “brain uptake clearance ratio relative to [18F]-Florbetaben” value is listed as 2.3 fold. In addition, the “clearance ratio relative to the benchmark (≥3.5) for crossing the blood-brain barrier” value in series [2] (mouse, in vivo) was determined as 3.3 fold. Moreover, in series [2] (normal mice), the “brain clearance ratio 5 min/60 min” value was 11.4 and 11.3; the “clearance from other critical organs” value was “excreted from other critical organs over 1 h”; the “defluorination / bone accumulation” value is on record as “without defluorination (no bone accumulation)”. In series [2] (normal mice, 5 min post tail-vein injection), this compound registered a brain uptake of 4.11±0.32 % ID/g. Moreover, the brain uptake in series [2] (normal mice, 60 min post tail-vein injection) is reported as 0.36±0.01 % ID/g. In addition, in series [3] (3-NP treated mice), the “correlation of brain uptake with immunohistochemistry” value was “maps with neurodegeneration and microglial activation in the striatum regions”. Also, the “retention in brains of 3-NP treated mice compared with saline treated” value in series [3] (72 h post 3-NP into striatum) turned out to be 2 fold.
